# Patent publication US7745450B2, “Pyrazolo[4,3-d]pyrimidines, processes for their preparation and methods for therapy” (Institute of Experimental Botany, priority 2002, dated 2010)
# Experiments:
# KG1 cells = test: Induction of apoptosis in tumor cells (microscopy, flow cytometry); format: cell-based, human; details: for Speed of apoptosis induction: scored after 6, 12, 24, 48 and 72 hours
# Description: Microscopy: Nuclear morphology of the cells was analyzed with the fluorochromes Hoechst 33342 (λEx max 346 nm; λEm max 460 nm) (Sigma) prepared in phosphate-buffered saline (PBS at 0.1 mg/ml, added to the culture medium at a final concentration of 2 μg/ml and ethidium homodimer (EB) (λEx max 540 nm; λEm max 625 nm) (Sigma) prepared in PBS at 100 μg/ml and added to the culture medium at a final concentration of 2 μg/ml (Lizard, 1995). Hundred cells were counted for each sample and percentage of apoptosis was determined.
# TdT-mediated dUTP nick end labeling (TUNEL): Control and novel compound-treated cell cultures were washed with PBS and fixed in 1% buffered formaldehyde (pH 7.4) for 15 minutes on ice. After washing in PBS, cells were permeabilized in 70% cold (−20° C.) ethanol and transferred to 4° C. for at least 1 hour. After rehydratation in PBS, cells were labeled with 50 μl/well TUNEL reaction mixture (Boehringer Mannheim). Cells were incubated in this solution at 37° C. for 40 minutes, washed in PBS and resuspended in 500 μl PBS containing 5 μg/ml EB and 0.1% RNAse. After 30 minutes of incubation at 4° C., green (FITC-dUTP) and red (EB-DNA) fluorescence of individual cells was measured on a FACscan flow cytometer (Gorczyca, 1993). Negative control (fixed and permeabilized cells incubated with 50 μl label solution per well without terminal transferase, instead of TUNEL reaction mixture) and positive control (fixed and permeabilized cells incubated with DNase I (100 μg/ml) that induces DNA strand breaks) were included in each experimental set-up.
# Viable, apoptotic, necrotic (=primary necrosis, not following apoptosis) and secondarily necrotic cells (=late apoptosis, evolving to necrosis) were scored differentially after 6, 12, 24, 48 and 72 hours of exposure to novel compounds. For the three products a different apoptosis-inducing pattern could be observed. Apoptosis induction occurs fast after incubation with 172 and 201 but slower after incubation with 98.
# After 6 and 12 hours of incubation the apoptotic population seems mainly to evolve from S phase. […]
# [1] = test system: Cytokinin-dependent tobacco callus Nicotiana tabacum L. cv. Wisconsins 38; test: Tobacco callus bioassay for cytotoxicity (herbicidal activity); format: cell-based
# Summary of the method: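 Compounds were prepared in DMSO as a 10^−3 M stock in water. Growth inhibition was scored from fresh callus weight gain after four weeks, with five replicates and the test run at least twice.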
Substance,"Incubation time after which apoptosis is detected (KG1 cells; flow cytometry, cell line not given) [h]",Speed of apoptosis induction (KG1 cells),Inhibition of tobacco callus growth [1]
"5-(3-aminoethylamino)-7-(3,4-dihydroxybenzyl)amino-3-isopropylpyrazolo[4,3-d]pyrimidine [Compound 201]",6,fast,
"5-(3-aminopropylamino)-7-benzylamino-3-isopropylpyrazolo[4,3-d]pyrimidine [Compound 17]",,,inhibitory effect
"5-(3-hydroxypropylamino)-7-[(R,S)-(1-phenyl-2-hydroxyethyl)amino-3-isopropylpyrazolo[4,3-d]pyrimidine [Compound 172]",,fast,
